Data taken from paper PMC5421785, “Citrullination only infrequently impacts peptide binding to HLA class II MHC” (PLoS ONE, 2017).
Read-outs that look alike come from different tables or passages of the source. Blank lines part the entries; values can stand above or below the compound they belong to. Square brackets hold non-standard residues; d marks the D form. Ends that are not written are not given here. Peptide text beside a SMILES is read from it. Cit = NC(=O)NCCC[C@H](N)C(=O)O

Columns and labels:
[1] = target: T1, HLA-DRB1*01:01 (Homo sapiens, UniProt P01903+P01911, A100R/D57E/F55L/F60I/F76Y/I96L/L162R/M171V/P40L/Q125E/R42F/V115G/Y59C); experiment: HLA class II peptide binding, inhibition of radiolabeled peptide binding to purified MHC
T1 construct: EBV transformed homozygous cell lines were used as sources of MHC molecules; endogenous in cells; host or cells: EBV transformed homozygous cell lines

[2] = target: T2, HLA-DRB1*04:01 (Homo sapiens, UniProt P01903+P01911, A100K/A169T/F76Y/I96L/K127E/L162R/M171V/N62H/P40V/Q125Y/R42H/S133A/S149N/S66Y/V115G/V209L/W38E); experiment: as above
T2 construct: EBV transformed homozygous cell lines were used as sources of MHC molecules; endogenous in cells; host or cells: EBV transformed homozygous cell lines

[3] = wild-type (unmodified Arg) 15-mer peptide, purified HLA-DRB1*01:01, read-out: DRB1*01:01 binding capacity, WT peptide (IC50 nM)
[4] = wild-type (unmodified Arg) 15-mer peptide, purified HLA-DRB1*04:01, read-out: DRB1*04:01 binding capacity, WT peptide (IC50 nM)
[5] = citrullinated 15-mer peptide (X = citrulline), purified HLA-DRB1*01:01, read-out: DRB1*01:01 binding capacity, Cit peptide (IC50 nM)
[6] = citrullinated 15-mer peptide (X = citrulline), purified HLA-DRB1*04:01, read-out: DRB1*04:01 binding capacity, Cit peptide (IC50 nM)
[7] = citrullinated 15-mer (X), purified MHC, inhibition of radiolabeled peptide binding, dash = IC50 >40,000 nM, read-out: DRB1*01:01 binding capacity, Cit peptide (IC50 nM)
[8] = citrullinated 15-mer (X), purified MHC, inhibition of radiolabeled peptide binding, dash = IC50 >40,000 nM, read-out: DRB1*04:01 binding capacity, Cit peptide (IC50 nM)
[9] = read-out: DRB1*01:01 binding capacity, WT peptide (IC50 nM)
[10] = read-out: DRB1*04:01 binding capacity, WT peptide (IC50 nM)

IC50 [1, 3]: 19 nM | IC50 [2, 4]: > 40000 nM
Compound: LGVMQGPMGPMGPRG [Collagen 196 WT]

IC50 [1, 5]: 31100 nM | IC50 [2, 6]: > 40000 nM
Compound: N=C(N)NCCC[C@H](NC(=O)[C@H](CCC(=O)O)NC(=O)CNC(=O)[C@H](CCCNC(=N)N)NC(=O)[C@@H]1CCCN1C(=O)CN)C(=O)NCC(=O)N[C@@H](Cc1ccccc1)C(=O)N1CCC[C@H]1C(=O)NCC(=O)N[C@@H](CCC(=O)O)C(=O)N[C@@H](CCCNC(N)=O)C(=O)NCC(=O)N[C@@H](CO)C(=O)N1CCC[C@H]1C(=O)O [GPRGERGFPGEXGSP] (H-GPRGERGFPGE[Cit]GSP-OH)

IC50 ([1]; citrullinated peptide as listed (X at Cit position), read-out: DRB1*01:01 binding capacity Cit peptide (IC50 nM)): 5.6 nM | IC50 ([2]; citrullinated peptide as listed (X at Cit position), read-out: DRB1*04:01 binding capacity Cit peptide (IC50 nM)): 55 nM
Compound: CC[C@H](C)[C@H](NC(=O)[C@H](CC(N)=O)NC(=O)[C@H](CCC(N)=O)NC(=O)[C@H](CO)NC(=O)CNC(=O)[C@H](CCC(=O)O)NC(=O)[C@@H](NC(=O)[C@H](CO)NC(=O)[C@H](CC(C)C)NC(=O)[C@H](CC(C)C)NC(=O)[C@H](CCCNC(N)=O)NC(=O)[C@H](CC(C)C)NC(=O)[C@H](Cc1ccccc1)NC(=O)[C@@H](N)[C@@H](C)O)[C@@H](C)O)C(=O)N[C@H](C(=O)O)[C@@H](C)O [TFLXLLSTEGSQNIT] (H-TFL[Cit]LLSTEGSQNIT-OH)

IC50 [1, 3]: 138 nM | IC50 [2, 4]: 600 nM
Compound: STEYRRQVQSLTCEV [Vimentin 316 WT]

IC50 [1, 7]: 1160 nM | IC50 [2, 8]: 8090 nM
Compound: CC(C)C[C@H](NC(=O)[C@H](CCC(N)=O)NC(=O)[C@H](CC(=O)O)NC(=O)[C@@H](NC(=O)[C@H](CCC(N)=O)NC(=O)[C@H](CCCNC(=N)N)NC(=O)[C@H](CCCNC(=N)N)NC(=O)[C@H](CC(C)C)NC(=O)[C@@H](N)CCC(=O)O)C(C)C)C(=O)N[C@H](C(=O)N[C@@H](CC(N)=O)C(=O)N[C@@H](CC(=O)O)C(=O)N[C@@H](CCCCN)C(=O)N[C@@H](C)C(=O)N[C@@H](CCCNC(N)=O)C(=O)O)[C@@H](C)O [ELRRQVDQLTNDKAX] (H-ELRRQVDQLTNDKA[Cit]-OH)

IC50 [1, 5]: 34200 nM | IC50 [2, 6]: 39500 nM
Compound: CC(C)C[C@H](NC(=O)[C@H](C)NC(=O)[C@H](CC(=O)O)NC(=O)[C@@H](N)CC(N)=O)C(=O)N[C@@H](CCCNC(=N)N)C(=O)N[C@@H](CCC(N)=O)C(=O)N[C@@H](C)C(=O)N[C@@H](CCCCN)C(=O)N[C@@H](CCC(N)=O)C(=O)N[C@@H](CCC(=O)O)C(=O)N[C@@H](CO)C(=O)N[C@H](C(=O)N[C@@H](CCC(=O)O)C(=O)N[C@@H](Cc1ccc(O)cc1)C(=O)N[C@@H](CCCNC(N)=O)C(=O)O)[C@@H](C)O [NDALRQAKQESTEYX] (H-NDALRQAKQESTEY[Cit]-OH)

IC50 [1, 9]: 11 nM | IC50 [2, 10]: 769 nM
Compound: RTYSLGSALRPSTSR [Vimentin 36 WT]

IC50 [1, 3]: 1920 nM | IC50 [2, 4]: 2710 nM
Compound: CC[C@H](C)[C@H](NC(=O)[C@H](CCCNC(=N)N)NC(=O)[C@H](CO)NC(=O)[C@H](CCC(=O)O)NC(=O)[C@H](CCC(=O)O)NC(=O)CNC(=O)[C@H](CCC(=O)O)NC(=O)[C@H](CC(C)C)NC(=O)[C@H](CC(C)C)NC(=O)[C@H](CCCCN)NC(=O)[C@@H](N)CCCNC(=N)N)C(=O)N[C@@H](CO)C(=O)N[C@@H](CC(C)C)C(=O)N1CCC[C@H]1C(=O)N[C@@H](CC(C)C)C(=O)O [Vimentin 401 WT]

IC50 [1, 9]: 17 nM | IC50 [2, 10]: 1600 nM
Compound: YATRSSAVRLRSSVP [Vimentin 61 WT]

IC50 [1, 7]: 5590 nM | IC50 [2, 8]: 29700 nM
Compound: CC(C)C[C@H](NC(=O)[C@H](C)NC(=O)[C@H](C)NC(=O)[C@@H](NC(=O)[C@H](CC(C)C)NC(=O)[C@H](CC(=O)O)NC(=O)[C@@H]1CCCN1C(=O)[C@H](CCCCN)NC(=O)[C@@H](N)CO)[C@@H](C)O)C(=O)N[C@@H](CCCNC(=N)N)C(=O)N[C@@H](CC(=O)O)C(=O)N[C@H](C(=O)N[C@@H](CCCNC(N)=O)C(=O)N[C@@H](CCC(N)=O)C(=O)N[C@@H](CCC(N)=O)C(=O)O)C(C)C [SKPDLTAALRDVXQQ] (H-SKPDLTAALRDV[Cit]QQ-OH)

IC50 [1, 5]: 28 nM
Compound: CC(C)C[C@H](NC(=O)CNC(=O)[C@H](CCCNC(=N)N)NC(=O)[C@@H](N)CCC(=O)O)C(=O)N[C@@H](CCCCN)C(=O)NCC(=O)N[C@@H](Cc1c[nH]cn1)C(=O)N[C@@H](CCCNC(N)=O)C(=O)NCC(=O)N[C@@H](Cc1ccccc1)C(=O)N[C@H](C(=O)NCC(=O)N[C@@H](CC(C)C)C(=O)N[C@@H](CCC(N)=O)C(=O)NCC(=O)O)[C@@H](C)O [ERGLKGHXGFTGLQG] (H-ERGLKGH[Cit]GFTGLQG-OH)
